Series [1] is classed as physicochemical.
Series [2] in a line: Water uptake on exposure to moisture (hygroscopicity). It is filed as physicochemical. As to conditions: for maximum water uptake: up to 95% RH at 25° C.
The next series is described as follows: Solubility in water. As to conditions: water at 25° C.

Molecules are shown by their SMILES. In brackets after ≈: the same amount, converted by molar mass.

`CC(C)c1nc2cc(O)ccc2c(=O)n1-c1ccc(C#N)cc1` [crystal form B, 4-(7-Hydroxy-2-isopropyl-4-oxo-4H-quinazolin-3-yl)-benzonitrile]: the “conversion of equimolar suspension of crystal form B and crystal form M” value in series [1] (20° C., 30° C. and 35° C., isopropylacetate, dichloromethane, ethanol or water, 7 days) is “converted after 7 days almost completely into crystal form M”.
Take `CC(C)c1nc2cc(O)ccc2c(=O)n1-c1ccc(C#N)cc1` [crystal form E, 4-(7-Hydroxy-2-isopropyl-4-oxo-4H-quinazolin-3-yl)-benzonitrile]: the “conversion of equimolar suspension of crystal form M and crystal form E” value in series [1] (30° C., 35° C. and 45° C., isopropylacetate, dichloromethane, ethanol or water, 7 days) is “converted after 7 days completely into Modification M”.
In the case of `CC(C)c1nc2cc(O)ccc2c(=O)n1-c1ccc(C#N)cc1` [crystal form M, 4-(7-Hydroxy-2-isopropyl-4-oxo-4H-quinazolin-3-yl)-benzonitrile], in series [1] (temperature range from 20° C. to 35° C.), the “thermodynamic stability relative to crystal form B” value is on record as “thermodynamically more stable than crystal form B”. The “thermodynamic stability relative to crystal form Q” value in series [1] (temperature range from 22° C. to 35° C.) is reported as “thermodynamically more stable than crystal form Q”. Moreover, the “thermodynamic stability relative to crystal form E” value in series [1] (temperature range from 30° C. to 45° C.) is on record as “thermodynamically more stable than crystal form E”. For the same compound, the hygroscopicity entry in series [2] (25° C.) was “non hygroscopic”. The maximum water uptake result in series [2] is listed as “less than 0.1%”. Moreover, the solubility in water in the series “Solubility in water” was found to be 40 µg/mL (≈ 131 µM).
`CC(C)c1nc2cc(O)ccc2c(=O)n1-c1ccc(C#N)cc1` [Hydrate HB, 4-(7-Hydroxy-2-isopropyl-4-oxo-4H-quinazolin-3-yl)-benzonitrile]: in series [2] (above 70% RH, at 95% RH, 25° C.), the “additional water uptake above 70% RH” value is listed as “about 2.5%”. For the same compound, the “water uptake up to 70% RH” value in series [2] (up to 70% RH at 25° C.) is listed as “slight uptake of water”.
Take `CC(C)c1nc2cc(O)ccc2c(=O)n1-c1ccc(C#N)cc1` [crystal form K′, 4-(7-Hydroxy-2-isopropyl-4-oxo-4H-quinazolin-3-yl)-benzonitrile]: in series [2] (25° C.), the hygroscopicity entry is “non-hygroscopic”. In series [2], the maximum water uptake result was “less than 0.2%”.
Regarding `CC(C)c1nc2cc(O)ccc2c(=O)n1-c1ccc(C#N)cc1` [crystal form Q, 4-(7-Hydroxy-2-isopropyl-4-oxo-4H-quinazolin-3-yl)-benzonitrile], the “conversion of equimolar suspension of crystal form M and crystal form Q” value in series [1] (22° C., 30° C. and 35° C., isopropylacetate, dichloromethane, ethanol or water, 7 days) is reported as “converted after 7 days completely into crystal form M”. Also, the hygroscopicity result in series [2] (25° C.) is “non hygroscopic”. For the same compound, the maximum water uptake entry in series [2] is recorded as “less than 0.1%”.

The values are drawn from US12459902B2, “Crystalline forms of 4-(7-hydroxy-2-isopropyl-4-oxo-4H-quinazolin-3-yl)-benzonitrile and formulations thereof” (priority 2020, dated 2025).
